Target: T1, Mtb GlgE (Mycobacterium tuberculosis, UniProt P9WQ17)
T1 construct: full-length wild type, N-terminal His tag (modified pET-28), E. coli T7 Rosetta; homodimer, intermolecular C29 disulfide in crystal
Assay: X-ray crystal structure, […] Å, crystal soak
Format: binding
Details: 10 mM ligand, 1 h soak of maltose co-crystal; acceptor glucan site about 26 Å from M1P site; ternary complex with maltose

T1 sequence (P9WQ17 1-700): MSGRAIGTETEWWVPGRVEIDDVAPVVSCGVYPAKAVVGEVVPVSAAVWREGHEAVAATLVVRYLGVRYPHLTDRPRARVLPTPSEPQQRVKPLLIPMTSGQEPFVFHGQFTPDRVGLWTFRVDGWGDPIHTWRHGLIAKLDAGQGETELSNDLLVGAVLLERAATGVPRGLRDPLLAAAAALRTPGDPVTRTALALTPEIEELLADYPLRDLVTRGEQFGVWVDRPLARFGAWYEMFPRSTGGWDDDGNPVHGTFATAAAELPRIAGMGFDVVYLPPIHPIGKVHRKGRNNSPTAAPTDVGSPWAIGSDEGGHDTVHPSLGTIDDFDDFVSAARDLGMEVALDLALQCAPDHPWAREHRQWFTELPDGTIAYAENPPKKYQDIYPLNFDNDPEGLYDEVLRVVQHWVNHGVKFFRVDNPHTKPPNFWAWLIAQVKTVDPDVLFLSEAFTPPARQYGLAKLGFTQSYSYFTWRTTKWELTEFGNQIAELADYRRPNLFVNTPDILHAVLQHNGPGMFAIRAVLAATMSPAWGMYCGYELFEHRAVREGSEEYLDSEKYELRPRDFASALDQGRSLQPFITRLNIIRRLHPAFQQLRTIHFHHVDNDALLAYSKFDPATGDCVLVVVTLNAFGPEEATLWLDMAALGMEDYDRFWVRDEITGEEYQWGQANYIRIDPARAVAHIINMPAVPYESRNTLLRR

Compound: OC[C@H]1O[C@H](O[C@H]2[C@H](O)[C@@H](O)[C@@H](O[C@H]3[C@H](O)[C@@H](O)[C@@H](O[C@H]4[C@H](O)[C@@H](O)[C@@H](O[C@H]5[C@H](O)[C@@H](O)[C@@H](O[C@H]6[C@H](O)[C@@H](O)C(O)O[C@@H]6CO)O[C@@H]5CO)O[C@@H]4CO)O[C@@H]3CO)O[C@@H]2CO)[C@H](O)[C@@H](O)[C@@H]1O (stereo partly shown) [M6, maltohexaose]
- X-ray crystal structure, 4.0 Å, crystal soak: ternary complex with Mtb GlgE bound to maltose and maltohexaose (GlgE-M6) was solved

From article PMC4526890, “Crystal structures of Mycobacterium tuberculosis GlgE and complexes with non-covalent inhibitors” (Scientific Reports, 2015)
